Results taken from patent US20220002279A1, “NOVEL IMIDAZOLE DERIVATIVE” (priority 2018, published 2022).
In brackets after ≈: the same amount, converted by molar mass. Read-outs that look alike come from different tables or passages of the source.

Tests used:
[1] = tested on: Escherichia coli strain ATCC25922; experiment: Antimicrobial activity, MIC by broth microdilution; format: cell-based; settings: ATCC25922, 18 h, read-out: MIC Escherichia coli ATCC25922
Outline: (§1)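 MIC read by eye as the lowest drug level lacking visible growth after roughly 18 h at 35° C. Cells from heart infusion agar, set to McFarland 0.5 and diluted, were inoculated at about 5×10^5 CFU/mL into cation-adjusted Mueller-Hinton broth with compound, per adapted CLSI microdilution.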

[2] = tested on: Pseudomonas aeruginosa strain ATCC27853; experiment: Antimicrobial activity, MIC by broth microdilution; format: cell-based; settings: ATCC27853, 18 h, read-out: MIC Pseudomonas aeruginosa ATCC27853
Outline: as §1

[3] = tested on: Klebsiella pneumoniae strain ATCC13883; experiment: Antimicrobial activity, MIC by broth microdilution; format: cell-based; settings: read-out: MIC Klebsiella pneumoniae ATCC13883
Outline: as §1

[4] = target: T1, Escherichia coli LpxC enzyme (Escherichia coli, UniProt P0A725); experiment: Inhibitory activity on Escherichia coli LpxC enzyme (fluorescamine method); format: biochemical
T1 construct: made in house; host or cells: Escherichia coli
T1 sequence (P0A725 1-305): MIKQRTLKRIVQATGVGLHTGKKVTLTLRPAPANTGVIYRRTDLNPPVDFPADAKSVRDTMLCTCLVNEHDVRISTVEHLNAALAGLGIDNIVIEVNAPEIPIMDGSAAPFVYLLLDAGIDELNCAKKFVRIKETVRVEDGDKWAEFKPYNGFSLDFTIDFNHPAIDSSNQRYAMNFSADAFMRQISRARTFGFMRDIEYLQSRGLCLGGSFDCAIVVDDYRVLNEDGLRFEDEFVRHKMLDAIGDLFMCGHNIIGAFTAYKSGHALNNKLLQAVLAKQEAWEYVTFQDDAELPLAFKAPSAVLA
Protocol: To assay the activity of Escherichia coli LpxC enzyme, LpxC was reacted with its substrate, UDP-3-O-(R-3-hydroxymyristoyl)-N-acetylglucosamine, and the amount of the reaction product was quantified by the amino groups present in the product
The reaction was terminated by the addition of 1.0 mg/mL-fluorescamine dissolved in a solvent obtained by mixing an equal amount of acetonitrile and dimethylformamide with the reaction mixture, and then, a 0.2 mol/L-sodium phosphate buffer solution (pH 8.0) was added thereto, and the amount of the reaction product was detected at an excitation wavelength/fluorescence wavelength=390 nm/495 nm. An inhibition curve was obtained by performing the aforementioned reaction in the presence of various concentrations of test compounds.

[5] = cation-adjusted Mueller-Hinton broth, about 5×10^5 CFU/mL, 35° C., about 18 hours
[6] = ATCC13883, cation-adjusted Mueller-Hinton broth, about 5×10^5 CFU/mL, 35° C., about 18 hours
[7] = fluorescamine detection, 3.1 nmol/L enzyme, 20 μmol/L substrate, pH 6.5, 120 min, read-out: IC50 (inhibitory activity on Escherichia coli LpxC enzyme, Fluoresamine method)

Compound	MIC [1, 5]	MIC [2, 5]	MIC [3, 6]	IC50 [4, 7]	IC50 [4]	MIC [1]	MIC [2]	MIC ([3]; ATCC13883, 18 h)
COCCC#Cc1ccc(-c2cc(Cn3ccnc3[C@H](C)O)no2)cc1 [Compound 65, (1S)-1-[l-({5-[4-(4-methoxybut-1-yn-1-yl)phenyl]-1,2-oxazol-3-yl)methyl)-1H-imidazol-2-yl]ethan-1-ol]	0.5 µg/mL (≈ 1.42 µM)	> 128 µg/mL	1 µg/mL (≈ 2.85 µM)	39.1 nM	–	–	–	–
COCC#Cc1ccc(-c2cc(Cn3ccnc3[C@H](C)O)no2)cc1 [Compound 53, (1S)-1-[l-((5-[4-(3-methoxyprop-1-yn-1-yl)phenyl]-1,2-oxazol-3-yl}methyl)-1H-imidazol-2-yl]ethan-1-ol]	4 µg/mL (≈ 11.9 µM)	> 128 µg/mL	2 µg/mL (≈ 5.93 µM)	81.7 nM	–	–	–	–
C[C@H](O)C(=O)N1C[C@@H]2[C@@H](C#Cc3ccc(-c4cc(Cn5ccnc5[C@H](C)O)no4)cc3)[C@@H]2C1 [Compound 77, (2S)-2-hydroxy-1-[(1R,5S,6R)-6-({4-[3-({2-[(1S)-1-hydroxyethyl]-1H-imidazol-1-yl}methyl)-1,2-oxazol-5-yl]phenyl}ethynyl)-3-azabicyclo[3.1.0]hexan-3-yl]propan-1-one]	2 µg/mL (≈ 4.48 µM)	32 µg/mL (≈ 71.7 µM)	2 µg/mL (≈ 4.48 µM)	67.4 nM	–	–	–	–
C[C@H](O)c1nccn1Cc1cc(-c2ccc(C#CC3(C)COC3)cc2)on1 [Compound 47, (1S)-1-{1-[(5-{4-[(3-methyloxetan-3-yl)ethynyl]phenyl}-1,2-oxazol-3-yl)methyl]-1H-imidazol-2-yl} ethan-1-ol]	0.5 µg/mL (≈ 1.38 µM)	> 128 µg/mL	1 µg/mL (≈ 2.75 µM)	19.3 nM	–	–	–	–
COCC1CC1C#Cc1ccc(-c2cc(Cn3ccnc3[C@H](C)O)no2)cc1 (stereo in doubt) [Compound 66, (1S)-1-(1-{[5-(4-{[trans-2-(Methoxymethyl)cyclopropyl]ethynyl}phenyl)-1,2-oxazol-3-yl]methyl}-1H-imidazol-2-yl)ethan-1-ol]	0.12 µg/mL (≈ 0.318 µM)	32 µg/mL (≈ 84.8 µM)	0.12 µg/mL (≈ 0.318 µM)	–	< 10 nM	–	–	–
C[C@H](O)c1nccn1[C@H](CN(C)C)c1cc(-c2ccc(C#C[C@@H]3[C@H]4CN(CCO)C[C@@H]34)cc2)on1 [Compound 39, (1S)-1-(1-{(1R)-2-(Dimethylamino)-1-[5-(4-{[(1R,5S,6s)-3-(2-hydroxyethyl)-3-azabicyclo[3.1.0]hexan-6-yl]ethynyl}phenyl)-1,2-oxazol-3-yl]ethyl}-1H-imidazol-2-yl)ethan-1-ol]	2 µg/mL (≈ 4.21 µM)	8 µg/mL (≈ 16.8 µM)	4 µg/mL (≈ 8.41 µM)	1820 nM	–	–	–	–
C[C@H](O)c1nccn1Cc1cc(-c2ccc(C#CC3CCOC3)cc2)on1 (stereo partly drawn) [Compound 49, (1S)-1-{1-[(5-{4-[(oxolan-3-yl)ethynyl]phenyl}-1,2-oxazol-3-yl)methyl]-1H-imidazol-2-yl}ethan-1-ol]	0.5 µg/mL (≈ 1.38 µM)	> 32 µg/mL	1 µg/mL (≈ 2.75 µM)	29.6 nM	–	–	–	–
C[C@H](O)c1nccn1Cc1cc(-c2ccc(C#CC3CN(C(=O)OC(C)(C)C)C3)cc2)on1 [Compound 68, tert-butyl 3-({4-[3-({2-[(1S)-1-hydroxyethyl]-1H-imidazol-1-yl}methyl)-1,2-oxazol-5-yl]phenyl}ethynyl)azetidine-1-carboxylate]	2 µg/mL (≈ 4.46 µM)	32 µg/mL (≈ 71.3 µM)	4 µg/mL (≈ 8.92 µM)	13.6 nM	–	–	–	–
COC(=O)N1C[C@@H]2[C@@H](C#Cc3ccc(-c4cc(Cn5ccnc5[C@H](C)O)no4)cc3)[C@@H]2C1 [Compound 78, Methyl (1R,5S,6s)-6-({4-[3-({2-[(1S)-1-hydroxyethyl]-1H-imidazol-1-yl}methyl)-1,2-oxazol-5-yl]phenyl}ethynyl)-3-azabicyclo[3.1.0]hexane-3-carboxylate]	–	–	–	–	13.8 nM	0.5 µg/mL (≈ 1.16 µM)	32 µg/mL (≈ 74 µM)	0.5 µg/mL (≈ 1.16 µM)
CC(=O)N[C@H]1C[C@H](C#Cc2ccc(-c3cc(Cn4ccnc4[C@H](C)O)no3)cc2)C1 [Compound 87, N-[trans-3-({4-[3-({2-[(1S)-1-hydroxyethyl]-1H-imidazol-1-yl}methyl)-1,2-oxazol-5-yl]phenyl}ethynyl)cyclobutyl]acetamide]	0.5 µg/mL (≈ 1.24 µM)	> 128 µg/mL	1 µg/mL (≈ 2.47 µM)	25.2 nM	–	–	–	–
C[C@H](O)c1nccn1Cc1cc(-c2ccc(C#CC3C(CO)C3CO)cc2)on1 (stereo partly drawn) [Compound 109, (1S)-1-(1-{[5-(4-{[2,3-Bis(hydroxymethyl)cyclopropyl]ethynyl}phenyl)-1,2-oxazol-3-yl]methyl}-1H-imidazol-2-yl)ethan-1-ol]	16 µg/mL (≈ 40.7 µM)	64 µg/mL (≈ 163 µM)	32 µg/mL (≈ 81.3 µM)	–	131 nM	–	–	–
C[C@H](O)c1nccn1Cc1cc(-c2ccc(C#C[C@@H]3[C@H]4CN(C=O)C[C@@H]34)cc2)on1 [Compound 73, (1R,5S,6s)-6-({4-[3-({2-[(1S)-1-Hydroxyethyl]-1H-imidazol-1-yl}methyl)-1,2-oxazol-5-yl]phenyl}ethynyl)-3-azabicyclo[3.1.0]hexane-3-carbaldehyde]	1 µg/mL (≈ 2.48 µM)	64 µg/mL (≈ 159 µM)	2 µg/mL (≈ 4.97 µM)	38.5 nM	–	–	–	–
C[C@H](O)c1nccn1Cc1cc(-c2ccc(C#CC(C)(C)C)cc2)on1 [Compound 43, (1S)-1-[1-({5-[4-(3,3-dimethylbut-1-yn-1-yl)phenyl]-1,2-oxazol-3-yl}methyl)-1H-imidazol-2-yl]ethan-1-ol]	1 µg/mL (≈ 2.86 µM)	> 32 µg/mL	2 µg/mL (≈ 5.72 µM)	47.1 nM	–	–	–	–
C[C@H](O)c1nccn1Cc1cc(-c2ccc(C#C[C@@H]3[C@H]4CN(C(=O)CCC(=O)O)C[C@@H]34)cc2)on1 [Compound 95, 4-[(1R,5S,6s)-6-({4-[3-({2-[(1S)-1-hydroxyethyl]-1H-imidazol-1-yl}methyl)-1,2-oxazol-5-yl]phenyl}ethynyl)-3-azabicyclo[3.1.0]hexan-3-yl]-4-oxobutanoic acid]	2 µg/mL (≈ 4.21 µM)	16 µg/mL (≈ 33.7 µM)	4 µg/mL (≈ 8.43 µM)	134 nM	–	–	–	–
C[C@H](O)c1nccn1Cc1cc(-c2ccc(C#C[C@@H]3[C@H]4CN(CC5COC5)C[C@@H]34)cc2)on1 [Compound 42, (1S)-1-[1-({5-[4-({(1R,5S,6s)-3-[(Oxetan-3-yl)methyl]-3-azabicyclo[3.1.0]hexan-6-yl}ethynyl)phenyl]-1,2-oxazol-3-yl}methyl)-1H-imidazol-2-yl]ethan-1-ol]	0.25 µg/mL (≈ 0.562 µM)	16 µg/mL (≈ 36 µM)	0.5 µg/mL (≈ 1.12 µM)	46.8 nM	–	–	–	–
C[C@H](O)c1nccn1Cc1cc(-c2ccc(C#C[C@@H]3[C@H]4CN(S(C)(=O)=O)C[C@@H]34)cc2)on1 [Compound 72, (1S)-1-(1-{[5-(4-{[(1R,5S,6s)-3-(Methanesulfonyl)-3-azabicyclo[3.1.0]hexan-6-yl]ethynyl}phenyl)-1,2-oxazol-3-yl]methyl}-1H-imidazol-2-yl)ethan-1-ol]	0.5 µg/mL (≈ 1.1 µM)	> 16 µg/mL	1 µg/mL (≈ 2.21 µM)	112 nM	–	–	–	–
C[C@H](O)c1nccn1Cc1cc(-c2ccc(C#C[C@@H]3[C@H]4CN(S(N)(=O)=O)C[C@@H]34)cc2)on1.Cl [Compound 81, (1R,5S,6s)-6-((4-[3-({2-[(1S)-1-Hydroxyethyl]-1H-imidazol-1-yl}methyl)-1,2-oxazol-5-yl]phenyl}ethynyl)-3-azabicyclo[3.1.0]hexane-3-sulfonamide hydrochloride]	0.5 µg/mL	> 4 µg/mL	1 µg/mL	69.6 nM	–	–	–	–
C[C@H](O)c1nccn1Cc1cc(-c2ccc(C#CC(C)(C)O)cc2)on1 [Compound 32, 4-(4-[3-({2-[(1S)-1-hydroxyethyl]-1H-imidazol-1-yl}methyl)-1,2-oxazol-5-yl]phenyl}-2-methylbut-3-yn-2-ol]	8 µg/mL (≈ 22.8 µM)	> 128 µg/mL	16 µg/mL (≈ 45.5 µM)	335 nM	–	–	–	–
C[C@H](O)c1nccn1Cc1cc(-c2ccc(C#CC3CC(NC4CC4)C3)cc2)on1 (stereo partly drawn) [Compound 98, (1S)-1-(1-{[5-(4-{[3-(cyclopropylamino)cyclobutyl]ethynyl}phenyl)-1,2-oxazol-3-yl]methyl}-1H-imidazol-2-yl)ethan-1-ol]	0.25 µg/mL (≈ 0.621 µM)	16 µg/mL (≈ 39.8 µM)	0.5 µg/mL (≈ 1.24 µM)	51.4 nM	–	–	–	–
CC(=O)N1CC(C#Cc2ccc(-c3cc(Cn4ccnc4[C@H](C)O)no3)cc2)C1 [Compound 69, 1-[3-({4-[3-({2-[(1S)-1-hydroxyethyl]-1H-imidazol-1-yl}methyl)-1,2-oxazol-5-yl]phenyl}ethynyl)azetidin-1-yl]ethan-1-one]	4 µg/mL (≈ 10.2 µM)	64 µg/mL (≈ 164 µM)	8 µg/mL (≈ 20.5 µM)	54.2 nM	–	–	–	–
